The source of these data is US20230002397A1, “SMALL MOLECULE DEGRADERS OF HELIOS AND METODS OF USE” (DANA-FARBER CANCER INSTITUTE, INC., priority 2019, published 2023).

The target of the assay is T1, IKZF2 (Homo sapiens, UniProt Q96SW2+Q9UKS7).
T1 construct: CRISPR/Cas9—mediated insertion of the HiBiT peptide tag (Promega™) to the N-terminus of the IKZF2 gene locus; endogenous in cells; host or cells: MOLT4 cells, with CRISPR/Cas9 knock-in of HiBiT at the endogenous IKZF2 locus
The assay can be described thus: HiBit-IKZF2 assay (HiBiT-Helios degradation in MOLT4 cells). Type of assay: cell-based. The conditions noted are these: for Dmax: MOLT-4, extent of degradation from highest to lowest concentration, 10 μM to 0.00026 μM, read-out: Dmax; for DC50: concentration at which 50% of HiBiT-Helios degradation was achieved. The method in brief:
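MOLT4 cells carried an endogenous N-terminal HiBiT tag on IKZF2, knocked in by CRISPR. Cells were treated in triplicate at 13 concentrations (10 μM–0.00026 μM), and remaining HiBiT-Helios was read by lytic luminescence at set timepoints. Data were normalized to DMSO to give the 50% degradation concentration, with Dmax taken from the luminescence range.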
On the technique in general: With HiBiT, luminescence reflects the tagged protein that the partner subunit can reach.

T1 sequence (Q9UKS7 whole entry): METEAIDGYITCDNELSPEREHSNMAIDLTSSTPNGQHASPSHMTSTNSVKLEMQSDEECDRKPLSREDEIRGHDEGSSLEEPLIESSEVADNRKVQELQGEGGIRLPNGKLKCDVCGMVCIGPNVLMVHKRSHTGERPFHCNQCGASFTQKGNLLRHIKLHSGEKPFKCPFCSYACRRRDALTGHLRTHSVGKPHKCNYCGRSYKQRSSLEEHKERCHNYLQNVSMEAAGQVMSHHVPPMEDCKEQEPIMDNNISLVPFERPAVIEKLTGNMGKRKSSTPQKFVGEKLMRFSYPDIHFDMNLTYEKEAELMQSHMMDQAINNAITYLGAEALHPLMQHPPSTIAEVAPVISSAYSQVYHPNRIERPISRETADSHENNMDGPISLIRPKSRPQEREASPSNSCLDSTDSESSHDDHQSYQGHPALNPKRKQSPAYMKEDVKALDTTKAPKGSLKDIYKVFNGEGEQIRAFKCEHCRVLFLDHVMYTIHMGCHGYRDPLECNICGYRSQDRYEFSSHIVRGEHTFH
T1 sequence (Q96SW2 whole entry): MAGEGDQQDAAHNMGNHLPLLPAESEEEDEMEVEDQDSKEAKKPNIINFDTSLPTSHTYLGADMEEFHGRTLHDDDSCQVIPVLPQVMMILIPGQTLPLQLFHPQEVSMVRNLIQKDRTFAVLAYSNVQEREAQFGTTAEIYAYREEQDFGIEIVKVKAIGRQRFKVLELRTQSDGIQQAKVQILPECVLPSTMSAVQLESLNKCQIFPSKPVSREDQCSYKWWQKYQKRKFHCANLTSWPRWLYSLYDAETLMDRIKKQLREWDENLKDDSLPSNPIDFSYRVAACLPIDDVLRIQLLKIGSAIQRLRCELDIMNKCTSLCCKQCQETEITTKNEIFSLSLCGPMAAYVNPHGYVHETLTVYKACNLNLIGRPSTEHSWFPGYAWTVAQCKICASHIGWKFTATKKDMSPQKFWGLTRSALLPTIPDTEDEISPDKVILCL
T1 sequence (Q16531 whole entry partner): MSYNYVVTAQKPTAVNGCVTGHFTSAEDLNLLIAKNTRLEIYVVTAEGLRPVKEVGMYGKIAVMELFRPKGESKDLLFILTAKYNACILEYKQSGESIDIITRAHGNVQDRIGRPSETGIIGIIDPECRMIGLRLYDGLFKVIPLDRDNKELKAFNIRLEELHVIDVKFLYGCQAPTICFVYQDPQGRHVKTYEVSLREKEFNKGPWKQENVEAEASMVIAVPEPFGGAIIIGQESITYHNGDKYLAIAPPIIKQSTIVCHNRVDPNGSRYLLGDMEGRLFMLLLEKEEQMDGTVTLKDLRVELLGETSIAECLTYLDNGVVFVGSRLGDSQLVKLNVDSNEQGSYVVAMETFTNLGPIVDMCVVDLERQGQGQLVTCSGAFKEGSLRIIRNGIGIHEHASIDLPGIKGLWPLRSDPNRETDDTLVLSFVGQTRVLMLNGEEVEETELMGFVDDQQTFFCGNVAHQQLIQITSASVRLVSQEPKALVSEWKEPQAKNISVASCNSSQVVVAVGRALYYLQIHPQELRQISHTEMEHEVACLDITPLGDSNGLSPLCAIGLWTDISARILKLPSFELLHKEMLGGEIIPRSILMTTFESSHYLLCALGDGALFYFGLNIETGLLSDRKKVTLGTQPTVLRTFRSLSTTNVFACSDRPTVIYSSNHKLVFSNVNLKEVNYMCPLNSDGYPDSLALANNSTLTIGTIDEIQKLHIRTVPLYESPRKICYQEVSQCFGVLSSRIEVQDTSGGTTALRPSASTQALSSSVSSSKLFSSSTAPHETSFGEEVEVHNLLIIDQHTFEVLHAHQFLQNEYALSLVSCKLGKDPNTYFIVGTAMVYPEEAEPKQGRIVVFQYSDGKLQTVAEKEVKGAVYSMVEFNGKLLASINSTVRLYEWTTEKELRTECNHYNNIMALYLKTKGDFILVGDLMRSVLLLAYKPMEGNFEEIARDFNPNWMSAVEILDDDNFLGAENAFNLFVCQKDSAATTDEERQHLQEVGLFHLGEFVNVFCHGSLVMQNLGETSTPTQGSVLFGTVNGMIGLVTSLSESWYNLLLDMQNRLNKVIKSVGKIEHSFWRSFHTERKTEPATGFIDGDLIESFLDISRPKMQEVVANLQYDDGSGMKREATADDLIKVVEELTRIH

`O=C1CCC(N2Cc3cc(C4(O)CCN(Cc5ccc6ccc(-c7ccccc7)nc6c5)CC4)ccc3C2=O)C(=O)N1` (stereo not shown) [Compound 236]: the maximal degradation (Dmax) was more than 70% and the DC50 is less than 0.01 µM.
For `O=C1CCC(N2Cc3cc(C4(O)CCN(Cc5ccnc(Nc6ccccc6)n5)CC4)ccc3C2=O)C(=O)N1` (stereo not shown) [Compound 196] the same measures were more than 70% and less than 0.01 µM.
Regarding `Cc1cccc(N2Cc3ccc(CN4CCC(c5ccc6c(c5)CN(C5CCC(=O)NC5=O)C6=O)CC4)cc3C2=O)c1` (stereo not shown) [Compound 215], the Dmax is more than 70% and the 50% degradation concentration (DC50) was 0.01 to 0.03 µM.
For `O=C1CCC(N2Cc3cc(C4CCN(Cc5cccc(Nc6ncccn6)c5)CC4)ccc3C2=O)C(=O)N1` (stereo not shown) [Compound 149] the same measures were 50 to 70% and less than 0.01 µM.
Consider `O=C1CCC(N2Cc3cc(C4(O)CCN(Cc5cccc6scnc56)CC4)ccc3C2=O)C(=O)N1` (stereo not shown) [Compound 241], for which the Dmax was more than 70% and the DC50 is less than 0.01 µM.
With `CN(C(=O)c1ccccc1)c1ccc(CN2CCC(c3ccc4c(c3)CN(C3CCC(=O)NC3=O)C4=O)CC2)cc1` (stereo not shown) [Compound 170], the Dmax was in the range of 50 to 70% and the DC50 was 0.01 to 0.03 µM.
Taken in the same sequence, the figures for `O=C1CCC(N2Cc3cc(C4CCN(Cc5ccc(C(=O)Nc6ccccc6)cc5)CC4)ccc3C2=O)C(=O)N1` (stereo not shown) [Compound 158] were 50 to 70% and 0.03 to 0.15 µM.
Taken in the same sequence, the figures for `O=C1CCC(N2Cc3cc(C4(O)CCN(Cc5ccccc5F)CC4)ccc3C2=O)C(=O)N1` (stereo not shown) [Compound 256] were more than 70% and less than 0.01 µM.
For the compound `O=C1CCC(N2Cc3cc(C4(O)CCN(Cc5ccc6c(c5)CCCO6)CC4)ccc3C2=O)C(=O)N1` (stereo not shown) [Compound 275], the Dmax was more than 70% and the 50% degradation concentration (DC50) is less than 0.01 µM.
Taken in the same sequence, the figures for `O=C1CCC(N2Cc3cc(C4(O)CCN(Cc5ccccc5)C4)ccc3C2=O)C(=O)N1` (stereo not shown) [Compound 210] were 30 to 50% and 0.03 to 0.15 µM.
Taken in the same sequence, the figures for `Cc1cnc(Nc2cccc(CN3CCC(c4ccc5c(c4)CN(C4CCC(=O)NC4=O)C5=O)CC3)c2)nc1` (stereo not shown) [Compound 228] were 50 to 70% and 0.01 to 0.03 µM.
Taken in the same sequence, the figures for `CN(c1ccccc1)S(=O)(=O)c1ccc(CN2CCC(c3ccc4c(c3)CN(C3CCC(=O)NC3=O)C4=O)CC2)cc1` (stereo not shown) [Compound 92] were 50 to 70% and less than 0.01 µM.
For `N#CC1(COc2ccc(CN3CCC(c4ccc5c(c4)CN(C4CCC(=O)NC4=O)C5=O)CC3)cc2)CC1` (stereo not shown) [Compound 45, 1-((4-((4-(2-(2,6-dioxopiperidin-3-yl)-1-oxoisoindolin-5-yl)piperidin-1-yl)methyl)phenoxy)methyl)cyclopropane-1-carbonitrile], the Dmax was in the range of 50 to 70% and the DC50 lay in the range of 0.01 to 0.03 µM.
For `O=C1CCC(N2Cc3cc(C4CCN(Cc5cccc(C(=O)Nc6ccccc6)c5)CC4)ccc3C2=O)C(=O)N1` (stereo not shown) [Compound 86, 3-((4-(2-(2,6-dioxopiperidin-3-yl)-1-oxoisoindolin-5-yl)piperidin-1-yl)methyl)-N-phenylbenzamide] the same measures were 50 to 70% and less than 0.01 µM.
For `O=C1CCC(N2Cc3cc(C4CCN(Cc5cccc(Nc6ncc(F)cn6)c5F)CC4)ccc3C2=O)C(=O)N1` (stereo not shown) [Compound 230] the same measures were 50 to 70% and 0.03 to 0.15 µM.
For `O=C1CCC(N2Cc3cc(C4CCN(Cc5ccc6c(c5)C(=O)N(c5cccc(Cl)c5)C6)CC4)ccc3C2=O)C(=O)N1` (stereo not shown) [Compound 176] the same measures were more than 70% and 0.03 to 0.15 µM.
On to `N#Cc1ccccc1N1Cc2ccc(CN3CCC(c4ccc5c(c4)CN(C4CCC(=O)NC4=O)C5=O)CC3)cc2C1=O` (stereo not shown) [Compound 179], for which the Dmax fell in the range of 50 to 70% and the 50% degradation concentration (DC50) is less than 0.01 µM.
With `O=C1CCC(N2Cc3cc(C4CCN(Cc5cccc(N6Cc7ncccc7C6=O)c5)CC4)ccc3C2=O)C(=O)N1` (stereo not shown) [Compound 125], the Dmax is 50 to 70% and the DC50 is less than 0.01 µM.
Taken in the same sequence, the figures for `O=C1CCC(N2Cc3cc(C4(O)CCN(Cc5csc(-c6ccccc6)n5)CC4)ccc3C2=O)C(=O)N1` (stereo not shown) [Compound 33] were more than 70% and less than 0.01 µM.
Taken in the same sequence, the figures for `O=C1CCC(N2Cc3cc(C4CCN(Cc5ccc(S(=O)(=O)N(c6ccccc6)C6COC6)cc5)CC4)ccc3C2=O)C(=O)N1` (stereo not shown) [Compound 165] were 50 to 70% and less than 0.01 µM.
Taken in the same sequence, the figures for `O=C1CCC(N2Cc3cc(C4CCN(Cc5ccc(N6CCCC6=O)cc5)CC4)ccc3C2=O)C(=O)N1` (stereo not shown) [Compound 147] were 50 to 70% and 0.03 to 0.15 µM.
As for `COc1ccccc1CN1CCC(O)(c2ccc3c(c2)CN(C2CCC(=O)NC2=O)C3=O)CC1` (stereo not shown) [Compound 263], the Dmax is more than 70% and the DC50 was less than 0.01 µM.
Taken in the same sequence, the figures for `O=C1CCC(N2Cc3cc(C4CCN(Cc5ccc6c(c5)C(=O)N(c5cnsc5)C6)CC4)ccc3C2=O)C(=O)N1` (stereo not shown) [Compound 222] were 50 to 70% and less than 0.01 µM.
For `COc1ccc(CN2CCC(O)(c3ccc4c(c3)CN(C3CCC(=O)NC3=O)C4=O)CC2)cc1` (stereo not shown) [Compound 262] the same measures were 50 to 70% and 0.01 to 0.03 µM.
On to `CN(c1ccccc1)S(=O)(=O)c1cccc(CN2CCC(c3ccc4c(c3)CN(C3CCC(=O)NC3=O)C4=O)CC2)c1` (stereo not shown) [Compound 98], for which the Dmax was in the range of 50 to 70% and the DC50 is less than 0.01 µM.
Take `N#Cc1cccc(CN2CCC(O)(c3ccc4c(c3)CN(C3CCC(=O)NC3=O)C4=O)CC2)c1` (stereo not shown) [Compound 238]: the maximal degradation (Dmax) was more than 70% and the DC50 is less than 0.01 µM.
As for `O=C1CCC(N2Cc3cc(C4CCN(Cc5ccc6c(c5)C(=O)N(c5cccc(F)c5)C6)CC4)ccc3C2=O)C(=O)N1` (stereo not shown) [Compound 175], the Dmax was 50 to 70% and the half-maximal degradation concentration (DC50) is less than 0.01 µM.
In the case of `O=C1CCC(N2Cc3cc(C4CCN(Cc5ccc6c(c5)C(=O)N(c5ccccc5)CCC6)CC4)ccc3C2=O)C(=O)N1` (stereo not shown) [Compound 183, 3-(1-oxo-5-(1-((1-oxo-2-phenyl-2,3,4,5-tetrahydro-1H-benzo[c]azepin-8-yl)methyl)piperidin-4-yl)isoindolin-2-yl)piperidine-2,6-dione], the Dmax lay within 50 to 70% and the DC50 is less than 0.01 µM.
For `Cc1ccc(CN2CCC(O)(c3ccc4c(c3)CN(C3CCC(=O)NC3=O)C4=O)CC2)cc1` (stereo not shown) [Compound 266] the same measures were more than 70% and less than 0.01 µM.
Taken in the same sequence, the figures for `O=C1CCC(N2Cc3cc(C4CCN(Cc5ccc(Nc6ccccc6)nc5)CC4)ccc3C2=O)C(=O)N1` (stereo not shown) [Compound 142] were 50 to 70% and 0.01 to 0.03 µM.
Taken in the same sequence, the figures for `O=C1CCC(N2Cc3cc(C4CCN(Cc5nccc(Nc6ccccn6)n5)CC4)ccc3C2=O)C(=O)N1` (stereo not shown) [Compound 102] were 50 to 70% and 0.01 to 0.03 µM.
For `O=C1CCC(N2Cc3cc(C4(O)CCN(Cc5cccc(F)c5)CC4)ccc3C2=O)C(=O)N1` (stereo not shown) [Compound 257], the Dmax is more than 70% and the DC50 is less than 0.01 µM.
For `O=C1CCC(N2Cc3cc(C4CCN(Cc5cccc(Nc6ncccn6)c5F)CC4)ccc3C2=O)C(=O)N1` (stereo not shown) [Compound 188], the maximal degradation (Dmax) lay within 50 to 70% and the DC50 is less than 0.01 µM.
For `O=C1CCC(N2Cc3cc(C4(O)CCN(Cc5ccccc5Cl)CC4)ccc3C2=O)C(=O)N1` (stereo not shown) [Compound 267] the same measures were more than 70% and less than 0.01 µM.
In the case of `O=C1CCC(N2Cc3cc(C4(O)CCN(Cc5cc(F)cc(F)c5)CC4)ccc3C2=O)C(=O)N1` (stereo not shown) [Compound 205], the Dmax is more than 70% and the DC50 is less than 0.01 µM.
For `O=C1CCC(N2Cc3cc(C4(O)CCN(Cc5cnc(-c6ccccc6)s5)CC4)ccc3C2=O)C(=O)N1` (stereo not shown) [Compound 240] the same measures were more than 70% and less than 0.01 µM.
Taken in the same sequence, the figures for `O=C1CCC(N2Cc3cc(C4(O)CCN(Cc5cccc(OC(F)F)c5)CC4)ccc3C2=O)C(=O)N1` (stereo not shown) [Compound 208] were more than 70% and less than 0.01 µM.
For `O=C1CCC(N2Cc3cc(C4CCN(Cc5cccc(Nc6ccc(F)cn6)c5)CC4)ccc3C2=O)C(=O)N1` (stereo not shown) [Compound 132] the same measures were 50 to 70% and less than 0.01 µM.
As to `CP(C)(=O)c1ccccc1NC(=O)c1cccc(CN2CCC(c3ccc4c(c3)CN(C3CCC(=O)NC3=O)C4=O)CC2)c1` (stereo not shown) [Compound 138], the Dmax was 50 to 70% and the half-maximal degradation concentration (DC50) was less than 0.01 µM.
For `O=C1CCC(N2Cc3cc(C4CCN(Cc5ccc(S(=O)(=O)N6CC7C(C6)C7(F)F)cc5)CC4)ccc3C2=O)C(=O)N1` (stereo not shown) [Compound 58] the same measures were 30 to 50% and 0.01 to 0.03 µM.
For `O=C1CCC(N2Cc3cc(C4(O)CCN(Cc5ccc6c(c5)CCO6)CC4)ccc3C2=O)C(=O)N1` (stereo not shown) [Compound 246] the same measures were more than 70% and less than 0.01 µM.
For `O=C1CCC(N2Cc3cc(C4(O)CCN(Cc5ccc6c(c5)OCCCO6)CC4)ccc3C2=O)C(=O)N1` (stereo not shown) [Compound 272] the same measures were more than 70% and less than 0.01 µM.
Regarding `CP(C)(=O)c1cccc(Nc2cccc(CN3CCC(c4ccc5c(c4)CN(C4CCC(=O)NC4=O)C5=O)CC3)c2)c1` (stereo not shown) [Compound 135, 3-(5-(1-(3-((3-(dimethylphosphoryl)phenyl)amino)benzyl)piperidin-4-yl)-1-oxoisoindolin-2-yl)piperidine-2,6-dione], the Dmax was in the range of 50 to 70% and the DC50 was 0.01 to 0.03 µM.
Taken in the same sequence, the figures for `COc1cccc(CN2CCC(O)(c3ccc4c(c3)CN(C3CCC(=O)NC3=O)C4=O)CC2)c1` (stereo not shown) [Compound 261] were more than 70% and less than 0.01 µM.

Broadly, the Dmax is the largest share of the target that was removed. In general, DC50 refers to the midpoint of the concentration-degradation curve. The low end stands for a more potent degrader, the high end for a less potent degrader.
